Laboratory results published in a melting point compilation (Tetko et al.; mined from patent text by program, amines drawn as free bases though some values may be those of a salt).
Residues, ends and D or L forms follow the SMILES beside them. *: point of attachment. Cbz = O=C(OCc1ccccc1)*

Compared with NS(=O)(=O)c1ccccc1-c1ccc(Cn2c(-c3ccccc3)nc(Cl)c2C=O)cc1, NC(=O)c1c(Cl)c(-c2ccccc2)n2c1CN(S(=O)(=O)c1ccc(-c3ccccn3)s1)CC2 is higher in melting point: 215 °C for the first, 222 to 224 °C for the second.

First: Cc1c(C(=O)c2ccc(Cl)c(S(N)(=O)=O)c2)c2ccccc2n1C
Second: Cn1c(CBr)c(C(=O)c2ccccc2)c(=O)n(C)c1=O
The melting point of the first is higher: 247 to 249 °C for the first, 164 to 167 °C for the second.

Compared with Cc1coc2c1C(=O)CC(c1ccccc1F)C2 (stereo not given), NCC1Cc2cc(-c3ccccc3Cl)cc(F)c2O1 (stereo not given) is higher in melting point: 71 to 72 °C for the first, greater than 250 °C for the second.

First: O=C(CCc1ccccc1)c1cccnc1Oc1ccc(F)cc1
Second: CCc1c(-c2ccc(OCc3ccccc3)cc2)c2c(C(=O)N(C)C)c(C(=O)O)c3cccc1n32
The melting point of the first is lower: 82 to 83 °C for the first, 236 to 238 °C for the second.

First: O=C(O)Cc1nn(Cc2nc3cc(O)cc(O)c3s2)c(=O)c2ccccc12
Second: CC(=O)CCn1nc(C)c(-c2ccc3c(c2)NC(=O)CO3)c1-c1ccc(F)cc1
The melting point of the first is higher: 184 °C for the first, 148 to 151 °C for the second.

First: CC(C)(C)OC(=O)COc1ccc2c3c(ccc2c1)OC(=O)CC3
Second: Cc1nc(N2CCc3ccccc3CC2)c(C#N)c(=O)n1NC(=O)OC(C)(C)C
The melting point of the first is lower: 95 to 96 °C for the first, 150 to 152 °C for the second.

First: COC(=O)C(C)NC(=O)C1CCCN1C(=O)CNC(=O)OCc1ccccc1 (stereo not drawn) (Cbz-Gly-Pro-Ala-OMe; configuration not given here)
Second: NC(=O)OCc1ccc(CNC(=O)[C@@H](CCCNC(N)=N[N+](=O)[O-])NC(=O)C(c2ccccc2)c2ccccc2)cc1
The melting point of the first is lower: 103 to 106 °C for the first, 130 to 132 °C for the second.

Compared with CC(C)c1cccc(C(C)C)c1NC(=O)CC(=O)N(Cc1ccccc1)C(C)C, CN(Cc1ccccc1)C(Cc1ccccc1)C(=O)O (stereo not given) is higher in melting point: 102 °C for the first, 214 to 215 °C for the second.

Going from CC(C)CCCC(C)C1CCC2C3=CC=C4CC(OC(=O)c5ccccc5)CC(OC(=O)c5ccccc5)C4(C)C3CCC21C (stereo not given) to OCc1ccc(Cn2c(CC3CCN(Cc4ccccc4)CC3)nc3ccccc32)o1, the melting point falls from 161 °C to 144 °C.

First: Nc1ccc(O)c(CSCCO)c1
Second: COc1ccc(C(C)(O)C(F)(F)F)c(CCO)c1 (stereo not given)
The melting point of the first is higher: 121 °C for the first, 110 to 111 °C for the second.

Compared with CN1C(=O)c2ccccc2CC1c1ccc(C(C)(C)C)cc1 (stereo not given), COc1ccc(C2CC(=O)N(c3ccncc3)C2=O)cc1 (stereo not given) is higher in melting point: 116 to 117 °C for the first, 179 to 180 °C for the second.

First: NC(=O)c1ccc(F)c2c1CC([N+](=O)[O-])CO2 (stereo not given)
Second: CC1C(c2ccc(Cl)cc2Cl)CC(=O)N1O (stereo not given)
The melting point of the first is higher: 184 to 186 °C for the first, 140 to 144 °C for the second.

First: CN1CCN(CCCn2c(NC(=O)c3ccc(Cl)c(Cl)c3)nc3ccccc32)CC1
Second: COc1nc2ccccc2nc1NC(=O)N1CCN(c2ccccc2F)CC1
The melting point of the first is higher: 166 to 168 °C for the first, 142 to 144 °C for the second.

Compared with N#CC1(C2(O)CCCCC2)Cc2cc3c(cc21)NCC3 (stereo not given), CC1(OC(=O)c2ncn3c2C2CCCN2C(=O)c2c(Cl)cccc2-3)CCCC1 (stereo not given) is higher in melting point: 168 to 170 °C for the first, 190 to 191 °C for the second.

First: COC(=O)C#CC(=O)c1ccc(SC)cc1
Second: COc1cccc(C(=O)c2cccc(C(=O)O)c2)c1
The melting point of the first is lower: 74 to 76 °C for the first, 160 °C for the second.

First: CC1=CC(c2ccccc2Cl)C(c2nnco2)=C(C)N1 (stereo not given)
Second: CC(C)(Cl)CC1NC(=O)c2ccccc21 (stereo not given)
The melting point of the first is higher: 192 to 194 °C for the first, 153 to 155 °C for the second.

Compared with COC(=O)C=Cc1ccc(OCCc2nc(-c3ccccc3)oc2C)nc1, O=C(O)CCc1oc(Sc2ccccn2)nc1-c1ccc(Cl)cc1 is higher in melting point: 138 to 139 °C for the first, 172 to 173 °C for the second.

First: O=C(Nc1ccc(Cl)cc1)NS(=O)(=O)c1ccc2c(c1)CCO2
Second: NC(=O)N(O)Cc1sccc1Sc1ccc(Cl)cc1
The melting point of the first is higher: 190 to 194 °C for the first, 111 to 113 °C for the second.

First: C=CCc1cc(OCC)c2c(c1OC)S(=O)(=O)N(Cc1ccccc1)C2=O
Second: CCOc1cc([C@@H](CCN(O)C=O)N2C(=O)c3cccc(NC(C)=O)c3C2=O)ccc1OC
The melting point of the first is lower: 92 to 94 °C for the first, 96 to 98 °C for the second.

First: Cc1ccc(C(=O)Nc2c(NC(=O)CN3CCN(c4ccccc4C#N)CC3)ccc3c2C(=O)c2ccccc2C3=O)cc1
Second: O=C(Nc1ccccc1-n1cccn1)c1cccc2c1C(=O)c1ccccc1-2
The melting point of the first is higher: 238 to 239 °C for the first, 164 to 166 °C for the second.

First: CC(=O)c1ccc(OCCCCNS(=O)(=O)c2ccc(Br)cc2)cc1
Second: CCC(O)(c1ccc(OCCCN2CCCCC2)cc1)c1cccc(Cl)c1 (stereo not given)
The melting point of the first is higher: 129 to 130 °C for the first, 80 to 81 °C for the second.

First: CC(C)(C)C(=O)N1CCSC1=S
Second: CC(C)(C)OC(=O)N1C[C@H](O)C[C@H]1C(N)=O
The melting point of the first is lower: 48 to 50 °C for the first, 146 to 148 °C for the second.

Compared with Cc1ccc(N2CCN(CCC3CN(C)C(=O)O3)CC2)cc1C (stereo not given), Cc1ccc(C(=O)N[C@@H]2COc3c(C)ccc(N4CCN(C)CC4)c3C2)cc1 is higher in melting point: 96 to 97 °C for the first, 191 to 192 °C for the second.

First: CCC(C)C(C)C(=O)Nc1ccc2ncn3c(=O)c(C(=O)O)cnc3c2c1 (stereo not given)
Second: CCOC(=O)NCCc1cccc(-c2ccnc3c(Cl)cnn23)c1
The melting point of the first is higher: 286 to 288 °C for the first, 100 to 102 °C for the second.

First: N#CC(=NOC(=O)OCC(Cl)(Cl)Cl)c1ccccc1
Second: N#CC1c2ccccc2C(Nc2ccc(Cl)cc2)=NN1C(=O)c1ccccc1 (stereo not given)
The melting point of the first is lower: 82 to 84 °C for the first, 201 to 202 °C for the second.

First: O=C(O)COCc1cccc(-c2ccccc2OC2OC(CO)C(O)C(O)C2O)c1 (stereo not given)
Second: C[C@H](COc1ccc(F)cc1)Nc1nc(Cl)nc2c1ncn2[C@@H]1O[C@H](CO)[C@@H](O)[C@H]1O
The melting point of the first is lower: 77 to 78 °C for the first, 172 to 173 °C for the second.

First: Cc1cc(Cl)ccc1NC(=S)Nc1ncccc1OCc1c(F)cccc1Cl
Second: O=S(=O)(Nc1cccc(CCOCc2cccc(-c3ccc(F)cc3)n2)c1)C(F)(F)F
The melting point of the first is higher: 176 to 177 °C for the first, 71 to 73 °C for the second.

First: C/C=C/OC(=O)/C=C/N(C)C
Second: CN(C)CC(=O)Nc1ccccc1N
The melting point of the first is lower: 48 to 48.5 °C for the first, 119 to 121 °C for the second.

First: C=CCCn1c(=O)c2c(ncn2CCC)n(C)c1=O
Second: CCCCn1c(=O)c2nc(C(=O)OCC)cn2c2ccccc21
The melting point of the first is lower: 48 °C for the first, 205 to 209 °C for the second.

Compared with O=C(N[C@H](Cc1ccc(C(F)(F)F)cc1)[C@@H](O)c1cccc(Cl)n1)c1ccc(F)c2ccccc12 (racemic), COC(=O)C(C)c1ccc(OCCNC(=O)C2Cc3ccccc3N2S(=O)(=O)c2ccc(-c3cc(C(F)(F)F)ccc3Cl)cc2)cc1 (stereo not given) is lower in melting point: 225 to 226 °C for the first, 55 to 63 °C for the second.

First: CC(=O)NC[C@H]1CN(c2ccc3c(c2)CCS(=O)(=O)CC3)C(=O)O1
Second: C=CCc1c(OC(C)=O)c(C)cc2ccc(=O)oc12
The melting point of the first is higher: 142 to 144 °C for the first, 110 to 111 °C for the second.

Compared with O=Cc1ccc(CO)cc1, OCc1ccc(-c2ccc(F)cn2)cc1 is higher in melting point: 44.5 to 46 °C for the first, 100 to 101 °C for the second.

First: CS(=O)CCNC(N)=O (stereo not given)
Second: CC(=O)NC(=N)NCCSCc1[nH]cnc1C
The melting point of the first is lower: 88 °C for the first, 163 to 164 °C for the second.

First: O=c1nc(N2CCN(c3ccccc3F)CC2)sc2c([N+](=O)[O-])cc(C(F)(F)F)cc12
Second: O=[N+]([O-])c1ccc(OCC2CC2)c(C(F)(F)F)c1
The melting point of the first is higher: 164 to 168 °C for the first, 41 to 44 °C for the second.

Compared with O=C(NOC(=O)C(F)(F)F)C(F)(F)F, COC(=O)N(CC(=O)O)C(=O)c1c(OCC(F)(F)F)ccc2c(C(F)(F)F)c(OC)ccc12 is higher in melting point: 40 to 50 °C for the first, 186 to 187 °C for the second.

First: CN1CCN(c2ccc([N+](=O)[O-])cc2)C1=O
Second: Cc1csc(N2CCN(Cc3ccc(C(=O)O)cc3)C2=O)n1
The melting point of the first is lower: 207 to 208 °C for the first, 222 to 224 °C for the second.

First: CC1Cc2ccc([Si](C)(C)C)c(S(=O)(=O)NC(C)(C)C)c2S1 (stereo not given)
Second: Cc1nn(C)c(F)c1C(=O)Nc1ccccc1C(C)CC(C)(C)C (stereo not given)
The melting point of the first is higher: 119 to 124 °C for the first, 78 to 80 °C for the second.

First: O=c1cc(Sc2ccccc2)c(-c2nc[nH]n2)nn1-c1ccccc1
Second: CNc1cnc(N(Cc2ccccc2)C(=O)OCc2ccccc2)cc1-c1ccccc1C
The melting point of the first is higher: 245 to 250 °C for the first, 110 to 112 °C for the second.

Going from CCN(CC)CCSC1=C(C#N)C(c2ccccc2)(c2cccc(C(F)(F)F)c2)C(=O)N1 (stereo not given) to CC(C)Oc1cc(CCC(=O)O)n(Cc2ccc(C(F)(F)F)cc2Cl)n1, the melting point falls from 127 °C to 122 °C.

First: NNC(=O)c1ccc(-c2csc(N=C(N)N)n2)o1
Second: Cc1nc(-n2cc(-c3cccnc3)nn2)sc1C(=O)NCc1ccccc1
The melting point of the first is higher: 279 to 280 °C for the first, 117 to 119 °C for the second.

First: Cn1cc(OS(C)(=O)=O)c(=O)c2cccc(F)c21
Second: COc1ccc(/C=C/c2cc(F)cc(F)c2)cc1
The melting point of the first is higher: 207 to 209 °C for the first, 108 to 110 °C for the second.

First: CC(=C(c1ccc(F)cc1)c1ccc(F)cc1)P(c1ccccc1)c1ccccc1
Second: C#CCN(Cc1ccc2nc(C)[nH]c(=O)c2c1)c1ccc(C(=O)NCC(OC(C)=O)c2ccccc2)cc1 (stereo not given)
The melting point of the first is lower: 88 to 90 °C for the first, 203 to 205 °C for the second.

Compared with N#CNc1nc2ccccc2o1, O=C1N[C@H]2OC(c3ccccc3)=N[C@@H]12 is lower in melting point: 175 °C for the first, 159 °C for the second.

First: COCC1COc2cc3ncnc(Nc4cccc(C(F)(F)F)c4)c3cc2O1 (stereo not given)
Second: Cc1cccc(CC(=O)N[C@H]2C[C@H](C(=O)O)Nc3cc(Cl)cc(Cl)c32)c1 (relative stereo)
The melting point of the first is higher: 280 to 282 °C for the first, 169 to 171 °C for the second.

Compared with O=C(NN=C(c1ccccc1)c1ccncc1)c1cccnc1, CCOC(=O)CCC1(NC(=O)c2ccc(Cl)c(Cl)c2)C(=O)N(CCCc2ccccc2)c2ccccc21 (stereo not given) is higher in melting point: 74 °C for the first, 120 to 122 °C for the second.

First: O=C(/C=C/c1ccc2ccccc2c1)N1CCOC1=O
Second: COC(=O)[C@@H]1Cc2ccccc2N1c1ccc(Cl)nn1
The melting point of the first is lower: 121 to 123 °C for the first, 133 to 134 °C for the second.

Compared with COc1ccccc1C1=CC(N2CCN(Cc3ccc(C)cc3)CC2)=NC12C=CC(=O)C=C2, COc1ccccc1Nc1cccc2c1C(=O)N(C1CCC(=O)NC1=O)C2=O (stereo not given) is higher in melting point: 147 °C for the first, 223 to 225 °C for the second.

First: COCCOc1ccc(CCNC(=O)/C=C/c2cccs2)cc1S(=O)(=O)NC(=S)NC(C)C
Second: Cc1c(O)c(C)c2nc(COc3ccc(CC4SC(=O)NC4=O)cc3)n(C)c2c1C (stereo not given)
The melting point of the first is lower: 101 °C for the first, 240 to 244 °C for the second.

Compared with CCCCCCCCCCCCCCCCOCC(CO)OC (stereo not given), CCC(=O)c1c(-c2cc(C)c(O)c(C)c2)c(C)n2c1-c1cc(OC)c(OC)cc1CC2 is higher in melting point: 56 °C for the first, 188 to 190 °C for the second.

Compared with O=c1cc(-c2ccoc2)c2ccc(Sc3cc(F)cc(-c4ccccc4)c3)cc2o1, O=S(=O)(c1ccccc1)c1c[nH]c2c(C3CCNCC3)cccc12 is higher in melting point: 122 to 124 °C for the first, 186 to 190 °C for the second.
